Experimental data taken from ChEMBL document CHEMBL1144980, “Lupane triterpenes and derivatives with antiviral activity” (Bioorg Med Chem Lett, 2003).

Tests used:
Influenza A virus [1] = experiment: Ratio of maximum nontoxic concentration (MNTC) against Influenza virus A to that of effective concentration (EC50); assay type: functional
Human alphaherpesvirus 1 [2] = experiment: Antiviral activity against HSV-1 determined by inhibition of viral cytopathic effect (CPE) in rhabdomyosarcoma (RD) cell line; assay type: functional, organism-based, herpes simplex virus; conditions: Human alphaherpesvirus 1, RD
Human alphaherpesvirus 1 [3] = experiment: Ratio of maximum nontoxic concentration (MNTC) against HSV-1 to that of effective concentration (EC50); assay type: functional, herpes simplex virus
Influenza A virus [4] = experiment: Antiviral activity against influenza A virus determined in chicken embryo cells (CEC) by plaque reduction assay method.; assay type: functional, organism-based

SMILES	Ratio (Influenza A virus [1])	EC50 (Human alphaherpesvirus 1 [2]) [µM]	Ratio (Human alphaherpesvirus 1 [3])	EC50 (Influenza A virus [4]) [µM]
C=C(C)[C@@H]1CCC2(NC(=O)N[C@@H](C(=O)OC)C(C)C)CC[C@@]3(C)C(CC[C@@H]4[C@@]5(C)CCC(=O)C(C)(C)C5CC[C@]43C)C12 (some centres not stated)	<1	0.2	454	> 85.7
C=C(C)[C@@H]1CC[C@]2(C(=O)NN)CC[C@@]3(C)C(CC[C@@H]4[C@@]5(C)CCC(=O)C(C)(C)C5CC[C@]43C)C12 (some centres not stated)	–	10	21.3	–
C=C(C)[C@@H]1CC[C@]2(C(=O)NN)CC[C@@]3(C)C(CC[C@@H]4[C@@]5(C)CC/C(=N\O)C(C)(C)C5CC[C@]43C)C12 (some centres not stated)	25.2	> 51.6	<1	2
C=C(C)[C@@H]1CC[C@]2(C(=O)N[C@@H](CCSC)C(=O)OC)CC[C@@]3(C)C(CC[C@@H]4[C@@]5(C)CCC(=O)C(C)(C)C5CC[C@]43C)C12 (some centres not stated)	11.9	> 666	<1	14.2
C=C(C)[C@@H]1CC[C@]2(C(=O)N[C@@H](C)C(=O)OC)CC[C@@]3(C)C(CC[C@@H]4[C@@]5(C)CCC(=O)C(C)(C)C5CC[C@]43C)C12 (some centres not stated)	<1	663	1.4	> 234
C=C(C)[C@@H]1CC[C@]2(C(=O)NCCO)CC[C@@]3(C)C(CC[C@@H]4[C@@]5(C)CCC(=O)C(C)(C)C5CC[C@]43C)C12 (some centres not stated)	<1	> 377	<1	> 755
C=C(C)[C@@H]1CC[C@]2(N=C=O)CC[C@@]3(C)C(CC[C@@H]4[C@@]5(C)CCC(=O)C(C)(C)C5CC[C@]43C)C12 (some centres not stated)	<1	> 221	<1	> 221
C=C(C)[C@@H]1CCC2(NC(=O)N[C@H](CC(C)C)C(=O)OC)CC[C@@]3(C)C(CC[C@@H]4[C@@]5(C)CCC(=O)C(C)(C)C5CC[C@]43C)C12 (some centres not stated)	>67	14.6	11.5	5
C=C(C)[C@@H]1CCC2(NC(=O)N[C@H](CCSC)C(=O)OC)CC[C@@]3(C)C(CC[C@@H]4[C@@]5(C)CC/C(=N\O)C(C)(C)C5CC[C@]43C)C12 (some centres not stated)	35.2	0.6	67.6	2.3
C=C(C)[C@@H]1CC[C@]2(C(=O)NCCCCCCCCCCCCCCCCCC)CC[C@@]3(C)C(CC[C@@H]4[C@@]5(C)CCC(=O)C(C)(C)C5CC[C@]43C)C12 (some centres not stated)	4.6	1.4	177	55.5
C=C(C)[C@@H]1CC[C@]2(C(=O)N[C@@H](CC(C)C)C(=O)OC)CC[C@@]3(C)C(CC[C@@H]4[C@@]5(C)CCC(=O)C(C)(C)C5CC[C@]43C)C12 (some centres not stated)	1.2	1370	<1	72.3
C=C(C)[C@@H]1CC[C@]2(C(=O)N[C@H](C(=O)OC)C(C)C)CC[C@@]3(C)C(CC[C@@H]4[C@@]5(C)CCC(=O)C(C)(C)C5CC[C@]43C)C12 (some centres not stated)	3.4	142	2.5	13.3
C=C(C)[C@@H]1CCC2(NC(=O)N[C@H](CCSC)C(=O)OC)CC[C@@]3(C)C(CC[C@@H]4[C@@]5(C)CCC(=O)C(C)(C)C5CC[C@]43C)C12 (some centres not stated)	3	2.2	298.5	27.1
C=C(C)[C@@H]1CC[C@]2(C(N)=O)CC[C@@]3(C)C(CC[C@@H]4[C@@]5(C)CCC(=O)C(C)(C)C5CC[C@]43C)C12 (some centres not stated)	1333.3	220	<1	0.7
C=C(C)[C@@H]1CC[C@]2(C(=O)O)CC[C@]3(C)[C@H](CC[C@@H]4[C@@]5(C)CC[C@H](O)C(C)(C)[C@@H]5CC[C@]43C)[C@@H]12 [BETULINIC ACID]	<1	8.2	53.3	> 219
C=C(C)[C@@H]1CC[C@]2(C(=O)O)CC[C@]3(C)[C@H](CC[C@@H]4[C@@]5(C)CCC(=O)C(C)(C)[C@@H]5CC[C@]43C)[C@@H]12 [BETUNOLIC ACID]	9.6	2.5	43.9	5.7
